Results reported in patent US10570179B2, “Substituted urea depsipeptide analogs as activators of the CLPP endopeptidase” (priority 2016, dated 2020).
Converted amounts (≈) assume the structure as drawn. Where two headings read alike, the source gives them in different places. Numbered stars: 1 amine (or outer) side, 2 acyl side, 3 side chain; on linkers, the order of the positions; unused ones are H or OH. Bridge positions count the residues as written; N and C are the ends. Square brackets hold non-standard residues; d marks the D form. Peptide text beside a SMILES is read from it. * marks the point of attachment. X5 = O=C([C@@H]1C[C@@H](OP(=O)(O)O)CN1[*:1])[*:2]; Piperazine(2S-CO,4-Me) = CN1CCN[C@H](C(=O)O)C1; Phe(3,5-Me2) = Cc1cc(C)cc(C[C@H](N)C(=O)O)c1; Phe(3-OMe) = COc1cccc(C[C@H](N)C(=O)O)c1; Phe(3-Me) = Cc1cccc(C[C@H](N)C(=O)O)c1; NH(4-Cl-2-F-phenyl) = Fc1cc(Cl)ccc1N*; Pro(4R-Me) = C[C@H]1CN[C@H](C(=O)O)C1; Hyp = O=C(O)[C@@H]1C[C@@H](O)CN1; NH(4-Et-phenyl) = CCc1ccc(N*)cc1; NH(4-Me-phenyl) = Cc1ccc(N*)cc1; aThr = C[C@H](O)[C@H](N)C(=O)O; Pip = O=C(O)[C@@H]1CCCCN1; X3 = c1cc2c(cc1N*)OCCO2; CO = O=C([*:1])[*:2]

Experiments:
[1] = Plasma protein binding, rapid equilibrium dialysis; format: in vitro ADME, mouse
MRSA NRS70 = experiment: Minimal inhibitory concentration, microbroth dilution; format: cell-based; settings: Staphylococcus aureus
Procedure, shortened: (§1)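 Susceptibility testing used the CLSI dilution standard, with bacteria at ~10^5 cfu/mL exposed to a two-fold compound series beginning at 200 μM final. The endpoint is the lowest concentration showing no growth after overnight incubation (37 °C, aerobic).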

S. aureus USA 300 = experiment: as above; format: cell-based; settings: Staphylococcus aureus
Procedure, shortened: as §1

S. aureus ΔClpP = experiment: as above; format: cell-based, Staphylococcus aureus; settings: MIC; ClpP inactivated
Procedure, shortened: as §1

S. aureus ClpP (Sa-ClpP) = target: T1, S. aureus ClpP (Sa-ClpP) (Staphylococcus aureus, UniProt Q2G036); experiment: Casein-BODIPY digestion assay (ClpP activation); format: biochemical
T1 construct: made in house; host or cells: E. coli BL21 (DE3)
T1 sequence (Q2G036 whole entry): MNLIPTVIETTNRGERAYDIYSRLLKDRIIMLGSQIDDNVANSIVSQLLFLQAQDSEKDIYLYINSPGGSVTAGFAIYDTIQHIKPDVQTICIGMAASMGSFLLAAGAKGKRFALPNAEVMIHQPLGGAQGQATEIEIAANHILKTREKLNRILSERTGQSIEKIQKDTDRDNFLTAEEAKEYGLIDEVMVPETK

[2] = MIC, read-out: Minimal Inhibitory Concentrations (μM) MRSA NRS70
[3] = USA300, MIC, read-out: Minimal Inhibitory Concentrations (μM) S. aureus USA 300
[4] = plasma binding, % Bound, mouse plasma
[5] = read-out: Minimal Inhibitory Concentrations (μM) MRSA NRS70, MIC
[6] = USA300, read-out: Minimal Inhibitory Concentrations (μM) S. aureus USA 300, MIC

SMILES	Mouse ([1]; mouse, 4 h, 10 μM, pH 7.4)	MIC (MRSA NRS70; [2])	MIC (S. aureus USA 300; [3])	Minimal Inhibitory Concentrations (μM) S. aureus ΔClpP (S. aureus ΔClpP)	EC50 (S. aureus ClpP (Sa-ClpP))	Mouse [1, 4]	MIC (MRSA NRS70; [5])	MIC (S. aureus USA 300; [6])
Cc1cccc(C[C@H](NC(=O)Nc2ccc(Cl)cc2F)C(=O)N[C@H]2COC(=O)[C@@H]3C[C@@H](C)CN3C(=O)[C@H](C)NC(=O)[C@@H]3CCCCN3C(=O)[C@@H]3CCCN3C2=O)c1 [Compound 8, (S)-2-(3-(4-CHLORO-2-FLUOROPHENYL)UREIDO)-N-((2R,6S,8AS,14AS,20S,23AS)-2,6-DIMETHYL-5,8,14,19,23-PENTAOXOOCTADECAHYDRO-1H,5H,14H,19H-PYRIDO[2,1-I]DIPYRROLO[2,1-C:2′,1′-L][1]OXA[4,7,10,13]TETRAAZACYCLOHEXADECIN-20-YL)-3-(M-TOLYL)PROPANAMIDE]	98.9 ± 0.4%	0.156 µM (≈ 0.126 µg/mL)	0.313 µM (≈ 0.254 µg/mL)	>20 µM	280 ± 20 nM	–	–	–
Cc1cccc(C[C@H](NC(=O)Nc2ccc(Cl)cc2F)C(=O)N[C@@H]2C(=O)N3C[C@H](OP(=O)(O)O)C[C@H]3C(=O)N3CCCC[C@H]3C(=O)N[C@@H](C)C(=O)N3C[C@H](C)C[C@H]3C(=O)O[C@H]2C)c1 [Compound 29, (2R,6S,8AS,14AS,16R,20S,21S,23AS)-20-((S)-2-(3-(4-CHLORO-2-FLUOROPHENYL)UREIDO)-3-(M-TOLYL)PROPANAMIDO)-2,6,21-TRIMETHYL-5,8,14,19,23-PENTAOXOOCTADECAHYDRO-1H,5H,14H,19H-PYRIDO[2,1-I]DIPYRROLO[2,1-C:2′,1′-L][1]OXA[4,7,10,13]TETRAAZACYCLOHEXADECIN-16-YL DIHYDROGEN PHOSPHATE] ({NH(4-Cl-2-F-phenyl)-CO}-[Phe(3-Me)][aThr][X5][Pip]A[Pro(4R-Me)]; ester 2-C)	–	–	–	>20 µM	240 ± 240 nM	96.9 ± 6.9%	2.5 µM	10 µM
CCc1ccc(NC(=O)N[C@@H](Cc2cccc(C)c2)C(=O)N[C@H]2COC(=O)[C@@H]3C[C@@H](C)CN3C(=O)[C@H](C)NC(=O)[C@@H]3CN(C)CCN3C(=O)[C@@H]3CCCN3C2=O)cc1 [Compound 16, (S)-2-(3-(4-ETHYLPHENYL)UREIDO)-3-(M-TOLYL)-N-((6AS,12S,15AS,17R,21S,23AS)-2,17,21-TRIMETHYL-6,11,15,20,23-PENTAOXOOCTADECAHYDRO-2H,6H,11H,15H-PYRAZINO[2,1-I]DIPYRROLO[2,1-C:2′,1′-L][1]OXA[4,7,10,13]TETRAAZACYCLOHEXADECIN-12-YL)PROPANAMIDE] ({NH(4-Et-phenyl)-CO}-[Phe(3-Me)]SP[Piperazine(2S-CO,4-Me)]A[Pro(4R-Me)]; ester 2-C)	97.1 ± 0.1%	0.313 µM (≈ 0.251 µg/mL)	0.625 µM (≈ 0.501 µg/mL)	>20 µM	630 ± 100 nM	–	–	–
Cc1cccc(C[C@H](NC(=O)Nc2ccc3c(c2)OCCO3)C(=O)N[C@@H]2C(=O)N3CCC[C@H]3C(=O)N3CCCC[C@H]3C(=O)N[C@@H](C)C(=O)N3C[C@H](C)C[C@H]3C(=O)O[C@H]2C)c1 [Compound 21, (S)-2-(3-(2,3-DIHYDROBENZO[B][1,4]DIOXIN-6-YL)UREIDO)-3-(M-TOLYL)-N-((2R,6S,8AS,14AS,20S,21S,23AS)-2,6,21-TRIMETHYL-5,8,14,19,23-PENTAOXOOCTADECAHYDRO-1H,5H,14H,19H-PYRIDO[2,1-I]DIPYRROLO[2,1-C:2′,1′-L][1]OXA[4,7,10,13]TETRAAZACYCLOHEXADECIN-20-YL)PROPANAMIDE] ({X3-CO}-[Phe(3-Me)][aThr]P[Pip]A[Pro(4R-Me)]; ester 2-C)	99.2 ± 0.1%	0.313 µM (≈ 0.26 µg/mL)	1.25 µM (≈ 1.04 µg/mL)	>20 µM	370 ± 40 nM	–	–	–
COc1cccc(C[C@H](NC(=O)Nc2ccc(Cl)cc2F)C(=O)N[C@H]2COC(=O)[C@@H]3C[C@@H](C)CN3C(=O)[C@H](C)NC(=O)[C@@H]3CN(C)CCN3C(=O)[C@@H]3CCCN3C2=O)c1 [Compound 19, (S)-2-(3-(4-CHLORO-2-FLUOROPHENYL)UREIDO)-3-(3-METHOXYPHENYL)-N-((6AS,12S,15AS,17R,21S,23AS)-2,17,21-TRIMETHYL-6,11,15,20,23-PENTAOXOOCTADECAHYDRO-2H,6H,11H,15H-PYRAZINO[2,1-I]DIPYRROLO[2,1-C:2′,1′-L][1]OXA[4,7,10,13]TETRAAZACYCLOHEXADECIN-12-YL)PROPANAMIDE] ({NH(4-Cl-2-F-phenyl)-CO}-[Phe(3-OMe)]SP[Piperazine(2S-CO,4-Me)]A[Pro(4R-Me)]; ester 2-C)	98.3 ± 0.1%	10 µM (≈ 8.41 µg/mL)	10 µM (≈ 8.41 µg/mL)	>20 µM	2520 ± 200 nM	–	–	–
Cc1ccc(NC(=O)N[C@@H](Cc2cccc(C)c2)C(=O)N[C@@H]2C(=O)N3CCC[C@H]3C(=O)N3CCCC[C@H]3C(=O)N[C@@H](C)C(=O)N3C[C@H](C)C[C@H]3C(=O)O[C@H]2C)cc1 [Compound 1, (S)-3-(M-TOLYL)-2-(3-(P-TOLYL)UREIDO)-N-((2R,6S,8AS,14AS,20S,21S,23AS)-2,6,21-TRIMETHYL-5,8,14,19,23-PENTAOXOOCTADECAHYDRO-1H,5H,14H,19H-PYRIDO[2,1-I]DIPYRROLO[2,1-C:2′,1′-L][1]OXA[4,7,10,13]TETRAAZACYCLOHEXADECIN-20-YL)PROPANAMIDE] ({NH(4-Me-phenyl)-CO}-[Phe(3-Me)][aThr]P[Pip]A[Pro(4R-Me)]; ester 2-C)	–	–	–	200 µM	430 ± 20 nM	98.9%	0.156 µM (≈ 0.123 µg/mL)	< 0.098 µM
Cc1ccc(NC(=O)N[C@@H](Cc2cccc(C)c2)C(=O)N[C@@H]2C(=O)N3C[C@H](O)C[C@H]3C(=O)N3CCCC[C@H]3C(=O)N[C@@H](C)C(=O)N3C[C@H](C)C[C@H]3C(=O)O[C@H]2C)cc1 [Compound 26, (S)—N-((2R,6S,8AS,14AS,16R,20S,21S,23AS)-16-HYDROXY-2,6,21-TRIMETHYL-5,8,14,19,23-PENTAOXOOCTADECAHYDRO-1H,5H,14H,19H-PYRIDO[2,1-I]DIPYRROLO[2,1-C:2′,1′-L][1]OXA[4,7,10,13]TETRAAZACYCLOHEXADECIN-20-YL)-3-(M-TOLYL)-2-(3-(P-TOLYL)UREIDO)PROPANAMIDE] ({NH(4-Me-phenyl)-CO}-[Phe(3-Me)][aThr][Hyp][Pip]A[Pro(4R-Me)]; ester 2-C)	–	–	–	>20 µM	650 ± 90 nM	99.1 ± 0.15%	0.313 µM (≈ 0.251 µg/mL)	2.5 µM (≈ 2 µg/mL)
Cc1cc(C)cc(C[C@H](NC(=O)Nc2ccc(Cl)cc2F)C(=O)N[C@@H]2C(=O)N3CCC[C@H]3C(=O)N3CCCC[C@H]3C(=O)N[C@@H](C)C(=O)N3C[C@H](C)C[C@H]3C(=O)O[C@H]2C)c1 [Compound 4, (S)-2-(3-(4-CHLORO-2-FLUOROPHENYL)UREIDO)-3-(3,5-DIMETHYLPHENYL)-N-((2R,6S,8AS,14AS,20S,21S,23AS)-2,6,21-TRIMETHYL-5,8,14,19,23-PENTAOXOOCTADECAHYDRO-1H,5H,14H,19H-PYRIDO[2,1-I]DIPYRROLO[2,1-C:2′,1′-L][1]OXA[4,7,10,13]TETRAAZACYCLOHEXADECIN-20-YL)PROPANAMIDE] ({NH(4-Cl-2-F-phenyl)-CO}-[Phe(3,5-Me2)][aThr]P[Pip]A[Pro(4R-Me)]; ester 2-C)	99.8 ± 0.0%	0.156 µM (≈ 0.131 µg/mL)	0.625 µM (≈ 0.524 µg/mL)	25 µM	430 ± 20 nM	–	–	–
Cc1cccc(C[C@H](NC(=O)Nc2ccc3c(c2)OCO3)C(=O)N[C@H]2COC(=O)[C@@H]3C[C@@H](C)CN3C(=O)[C@H](C)NC(=O)[C@@H]3CCCCN3C(=O)[C@@H]3CCCN3C2=O)c1 [Compound 23, (S)-2-(3-(BENZO[D][1,3]DIOXOL-5-YL)UREIDO)-N-((2R,6S,8AS,14AS,20S,23AS)-2,6-DIMETHYL-5,8,14,19,23-PENTAOXOOCTADECAHYDRO-1H,5H,14H,19H-PYRIDO[2,1-I]DIPYRROLO[2,1-C:2′,1′-L][1]OXA[4,7,10,13]TETRAAZACYCLOHEXADECIN-20-YL)-3-(M-TOLYL)PROPANAMIDE]	96.9 ± 0.1%	0.625 µM (≈ 0.501 µg/mL)	1.25 µM (≈ 1 µg/mL)	>20 µM	350 ± 90 nM	–	–	–
Cc1cccc(C[C@H](NC(=O)Nc2ccc(Cl)cc2F)C(=O)N[C@H]2COC(=O)[C@@H]3C[C@@H](C)CN3C(=O)[C@H](C)NC(=O)[C@@H]3CN(C)CCN3C(=O)[C@@H]3CCCN3C2=O)c1 [Compound 13, (S)-2-(3-(4-CHLORO-2-FLUOROPHENYL)UREIDO)-3-(M-TOLYL)-N-((6AS,12S,15AS,17R,21S,23AS)-2,17,21-TRIMETHYL-6,11,15,20,23-PENTAOXOOCTADECAHYDRO-2H,6H,11H,15H-PYRAZINO[2,1-I]DIPYRROLO[2,1-C:2′,1′-L][1]OXA[4,7,10,13]TETRAAZACYCLOHEXADECIN-12-YL)PROPANAMIDE] ({NH(4-Cl-2-F-phenyl)-CO}-[Phe(3-Me)]SP[Piperazine(2S-CO,4-Me)]A[Pro(4R-Me)]; ester 2-C)	97.5 ± 0.3%	1.25 µM (≈ 1.03 µg/mL)	2.5 µM (≈ 2.06 µg/mL)	>20 µM	1520 ± 100 nM	–	–	–
